Where a SMILES comes first, the peptide text is derived from it. [ ]: non-standard residue; d: D form. Abu = CC[C@H](N)C(=O)O
Key:
[1] = molecular target: T1, Interleukin-8 receptors, CXCR1/CXCR2 (Homo sapiens, UniProt P25025+P25024); experiment: Inhibitory activity against interleukin-8 receptor using [125I]IL8; format: protein assay
T1 sequence (P25025 whole entry): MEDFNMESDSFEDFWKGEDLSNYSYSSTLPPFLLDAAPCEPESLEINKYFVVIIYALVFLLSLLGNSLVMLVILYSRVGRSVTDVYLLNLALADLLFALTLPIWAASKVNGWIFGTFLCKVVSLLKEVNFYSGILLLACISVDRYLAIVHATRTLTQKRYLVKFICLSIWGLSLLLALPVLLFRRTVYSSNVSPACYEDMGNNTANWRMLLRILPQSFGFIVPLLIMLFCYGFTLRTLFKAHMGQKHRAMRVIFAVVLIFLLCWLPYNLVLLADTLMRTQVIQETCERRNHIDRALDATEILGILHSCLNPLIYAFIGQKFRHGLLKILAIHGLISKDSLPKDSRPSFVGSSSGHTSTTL
T1 sequence (P25024 whole entry): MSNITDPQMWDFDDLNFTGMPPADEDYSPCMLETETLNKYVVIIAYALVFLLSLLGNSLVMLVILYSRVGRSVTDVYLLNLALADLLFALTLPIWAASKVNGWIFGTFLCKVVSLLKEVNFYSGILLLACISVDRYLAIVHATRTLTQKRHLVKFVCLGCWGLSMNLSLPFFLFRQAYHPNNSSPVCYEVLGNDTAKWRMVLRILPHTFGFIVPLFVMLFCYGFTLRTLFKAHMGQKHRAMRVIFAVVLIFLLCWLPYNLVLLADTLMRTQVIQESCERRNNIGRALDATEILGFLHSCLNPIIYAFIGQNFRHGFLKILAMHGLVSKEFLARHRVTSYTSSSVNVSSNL

[2] = molecular target: T1, Interleukin-8 receptors, CXCR1/CXCR2; experiment: Compound was tested for inhibitory activity against Interleukin-8 receptor; format: protein assay

| Ki [1] [µM] | IC50 [2] [µM] | Compound |
| --- | --- | --- |
| 27 | – | Ac-WDFDDLNFTGMPPADEDYSP-NH2 |
| 29 | – | Ac-MWDFDDLNFTGMPPADADYSP-NH2 |
| 68 | – | Ac-DFDDLNFTGMPPADEDYSP-NH2 |
| 265 | – | Ac-MWDFDDLNFTGMPPADEDASP-NH2 |
| 890 | – | Ac-GMPPADEDYSP-NH2 |
| 27 | – | Ac-MWDFDDLNFTGMPAADEDYSP-NH2 |
| 28 | – | Ac-MWAFDDLNFTGMPPADEDYSP-NH2 |
| 400 | – | Ac-MWDFDDLNFTGMAPADEDYSP-NH2 |
| 10 | – | Ac-FRQAYHPNNSSP-NH2 |
| 42 | – | Ac-MWDFDDLAFTGMPPADEDYSP-NH2 |
| 1.7 | – | CSCC[C@H](NC(C)=O)C(=O)N1CCC[C@H]1C(=O)N1CCC[C@H]1C(=O)N[C@@H](C)C(=O)N[C@@H](CC(=O)O)C(=O)N[C@@H](CCC(=O)O)C(=O)N[C@@H](CC(=O)O)C(=O)N[C@@H](Cc1ccc(O)cc1)C(=O)N[C@@H](CO)C(=O)N1CCC[C@H]1C(N)=O (stereo in doubt; form 1) |
| 750 | – | Ac-DLNFTGMPPADEDYSP-NH2 |
| 155 | – | Ac-MWDFDDLNFTGMPPADEDYSA-NH2 |
| 49 | – | Ac-MWDADDLNFTGMPPADEDYSP-NH2 |
| 14 | – | Ac-MWDFDDLNFTGAPPADEDYSP-NH2 |
| 5 | – | Ac-MWDFDDLNFAGMPPADEDYSP-NH2 |
| 55 | – | Ac-MWDFDDLNFTGMPPAAEDYSP-NH2 |
| 2700 | – | Ac-NFTGMPPADEDYSP-NH2 |
| > 1 | – | Ac-ADTLMRTQVIQETAERRNNIGRALDATEI-NH2 |

| Ki [1] [µM] | IC50 [2] [µM] | Compound |
| --- | --- | --- |
| 32 | – | Ac-MWDFADLNFTGMPPADEDYSP-NH2 |
| 0.3 | – | CC[C@H](NC(=O)[C@@H]1CCCN1C(=O)[C@H](CO)NC(=O)[C@H](Cc1ccc(O)cc1)NC(=O)[C@H](CC(=O)O)NC(=O)[C@H](CCC(=O)O)NC(=O)[C@H](CC(=O)O)NC(=O)[C@H](C)NC(=O)[C@@H]1CCCN1C(=O)[C@@H]1CCCN1C(=O)[C@H](CCSC)NC(C)=O)C(=O)N[C@@H](CCSC)C(=O)N[C@@H](CC(C)C)C(=O)N[C@@H](CCC(=O)O)C(=O)N[C@H](C(=O)N[C@@H](CCC(=O)O)C(=O)N[C@H](C(=O)N[C@@H](CC(C)C)C(=O)N[C@@H](CC(N)=O)C(=O)N[C@@H](CCCCN)C(=O)N[C@@H](Cc1ccc(O)cc1)C(N)=O)[C@@H](C)O)[C@@H](C)O (Ac-MPPADEDYSP[Abu]MLETETLNKY-NH2) |
| 55 | – | Ac-MADFDDLNFTGMPPADEDYSP-NH2 |
| 15 | – | Ac-MWDFDDLNFTGMPPADEDYAP-NH2 |
| 42 | – | Ac-MWDFDDLNFTGMPPADEAYSP-NH2 |
| 1850 | – | Ac-FTGMPPADEDYSP-NH2 |
| 3100 | – | Ac-LNFTGMPPADEDYSP-NH2 |
| 1700 | – | CSCC[C@H](NC(C)=O)C(=O)N1CCC[C@H]1C(=O)N1CCC[C@H]1C(=O)N[C@@H](C)C(=O)N[C@@H](CC(=O)O)C(=O)N[C@@H](CCC(=O)O)C(=O)N[C@@H](CC(=O)O)C(=O)N[C@@H](Cc1ccc(O)cc1)C(=O)N[C@@H](CO)C(=O)N1CCC[C@H]1C(N)=O (stereo in doubt; form 2) |
| > 30 | – | Ac-MSNITDPQMWDFDDLNFTG-NH2 |
| 107 | – | Ac-MWDFDDLNATGMPPADEDYSP-NH2 |
| 190 | – | Ac-DDLNFTGMPPADEDYSP-NH2 |
| 23 | – | Ac-AWDFDDLNFTGMPPADEDYSP-NH2 |
| > 30 | – | CC[C@H](NC(=O)[C@H](CC(C)C)NC(=O)[C@H](Cc1ccccc1)NC(=O)[C@@H](NC(=O)CNC(=O)[C@H](Cc1ccccc1)NC(=O)[C@@H](NC(=O)[C@H](Cc1c[nH]c2ccccc12)NC(=O)CNC(=O)[C@H](CC(N)=O)NC(=O)[C@@H](NC(C)=O)C(C)C)[C@@H](C)CC)[C@@H](C)O)C(=O)N[C@@H](CCCCN)C(=O)N[C@H](C(N)=O)C(C)C (Ac-VNGWIFGTFL[Abu]KV-NH2) |
| 120 | – | Ac-FDDLNFTGMPPADEDYSP-NH2 |
| 13 | 19 | Ac-MWDFDDLNFTGMPPADEDYSP-NH2 |
| 61 | – | Ac-MWDFDDANFTGMPPADEDYSP-NH2 |
| > 1 | – | CC[C@H](NC(=O)[C@@H](NC(C)=O)C(C)C)C(=O)N[C@@H](Cc1ccc(O)cc1)C(=O)N[C@@H](CCC(=O)O)C(=O)N[C@H](C(=O)N[C@@H](CC(C)C)C(=O)NCC(=O)N[C@@H](CC(N)=O)C(=O)N[C@@H](CC(=O)O)C(=O)N[C@H](C(=O)N[C@@H](C)C(=O)N[C@@H](CCCCN)C(=O)N[C@@H](Cc1c[nH]c2ccccc12)C(=O)N[C@@H](CCCN=C(N)N)C(=O)N[C@@H](CCSC)C(=O)N[C@H](C(=O)N[C@@H](CC(C)C)C(=O)N[C@@H](CCCN=C(N)N)C(=O)N[C@H](C(N)=O)[C@@H](C)CC)C(C)C)[C@@H](C)O)C(C)C (Ac-V[Abu]YEVLGNDTAKWRMVLRI-NH2) |
| 2050 | – | Ac-TGMPPADEDYSP-NH2 |
| 62 | – | Ac-MWDFDALNFTGMPPADEDYSP-NH2 |

Reference: ChEMBL document CHEMBL1150989, “Identification and characterisation of an inhibitor of interleukin-8: a receptor based approach” (Bioorg Med Chem Lett, 1996)
